Values of other authors, collected in patent US20220409679A1, “COMPOSITIONS AND METHODS WITH A PROBIOTIC AND A NUTRIENT AND/OR MINERAL FOR THE PREVENTION OR TREATMENT OF MASTITIS” (SOCIETE DES PRODUITS NESTLE S.A., priority 2019, published 2022).

Experiments:
[1] = tested on: mastitis in cows; conditions: O'Rourke 2009; for symptoms associated with mastitis: supplementation
[2] = O'Rourke 2009

## [Zn] [zinc]
[1]
  immune system: enhance the immune system
  symptoms associated with mastitis: reduce mastitis symptoms in cows

## [Se] [selenium]
[1]
  symptoms associated with mastitis: improves symptoms associated with mastitis in cows
[2]
  antibacterial activity in milk: improves antibacterial activity in milk

## [Cu] [copper]
[1]
  immune system: enhance the immune system
  symptoms associated with mastitis: reduce mastitis symptoms in cows
